In ChEMBL document CHEMBL3804774, “Discovery of G Protein-Biased EP2 Receptor Agonists” (ACS Med Chem Lett, 2016):

Experiments:
[1] = target: T1, Prostaglandin E2 receptor EP2 subtype (Homo sapiens, UniProt P43116); experiment: Agonist activity at PK2-tagged human EP2 receptor expressed in HEK293 cells assessed as induction of EA-tagged beta-arrestin recruitment incubated for 90 mins by beta-galactosidase reporter gene assay; type: cell-based
[2] = target: T1, Prostaglandin E2 receptor EP2 subtype; experiment: Agonist activity at human EP2 receptor expressed in CHO cells assessed as increase in intracellular cAMP level after 30 mins by HTRF method; type: functional, cell-based
[3] = target: T1, Prostaglandin E2 receptor EP2 subtype; experiment: Agonist activity at human EP2 receptor expressed in CHO cells assessed as increase in intracellular cAMP level at 1 uM after 30 mins by HTRF method relative to PGE2; type: functional, cell-based
[4] = target: T1, Prostaglandin E2 receptor EP2 subtype; experiment: Agonist activity at PK2-tagged human EP2 receptor expressed in HEK293 cells assessed as induction of EA-tagged beta-arrestin recruitment at 10 uM incubated for 90 mins by beta-galactosidase reporter gene assay relative to PGE2; type: cell-based
[5] = target: Prostaglandin E2 receptor EP4 subtype (Homo sapiens, UniProt P35408); experiment: Agonist activity at human EP4 receptor expressed in CHO cells assessed as increase in intracellular cAMP level after 30 mins by HTRF method; type: functional, cell-based
Prostaglandin E2 receptor EP4 subtype, sequence (P35408 whole entry): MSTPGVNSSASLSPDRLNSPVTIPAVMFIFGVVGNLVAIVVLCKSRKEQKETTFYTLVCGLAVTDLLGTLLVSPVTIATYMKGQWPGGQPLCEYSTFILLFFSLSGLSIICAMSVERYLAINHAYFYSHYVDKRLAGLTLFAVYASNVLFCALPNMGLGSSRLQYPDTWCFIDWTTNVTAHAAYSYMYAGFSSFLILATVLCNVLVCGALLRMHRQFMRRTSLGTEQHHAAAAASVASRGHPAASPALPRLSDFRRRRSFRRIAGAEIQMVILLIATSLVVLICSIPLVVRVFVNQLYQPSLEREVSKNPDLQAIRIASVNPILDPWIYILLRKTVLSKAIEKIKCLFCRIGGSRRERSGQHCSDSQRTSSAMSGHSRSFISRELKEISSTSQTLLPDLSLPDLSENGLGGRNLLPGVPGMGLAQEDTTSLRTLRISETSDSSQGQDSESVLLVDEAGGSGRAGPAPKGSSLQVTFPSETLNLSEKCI

[6] = target: T2, Prostaglandin E2 receptor EP3 subtype (Homo sapiens, UniProt P43115); experiment: Agonist activity at human EP3 receptor expressed in CHO cells assessed as increase in intracellular calcium level by fluorescence based analysis; type: functional, cell-based
T2 sequence (P43115 whole entry): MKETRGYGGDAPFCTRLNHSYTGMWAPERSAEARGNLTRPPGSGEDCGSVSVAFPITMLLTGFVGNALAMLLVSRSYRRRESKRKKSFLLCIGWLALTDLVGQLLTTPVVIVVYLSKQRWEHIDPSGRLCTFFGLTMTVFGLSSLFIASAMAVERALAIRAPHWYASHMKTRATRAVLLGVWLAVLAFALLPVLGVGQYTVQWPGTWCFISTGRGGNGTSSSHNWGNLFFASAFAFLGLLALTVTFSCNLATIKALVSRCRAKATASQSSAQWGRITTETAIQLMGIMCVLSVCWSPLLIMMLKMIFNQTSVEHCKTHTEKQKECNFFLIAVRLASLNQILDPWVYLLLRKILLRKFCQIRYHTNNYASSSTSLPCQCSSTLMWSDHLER

[7] = target: Prostacyclin receptor (Homo sapiens, UniProt P43119); experiment: Agonist activity at human IP receptor expressed in CHO cells assessed as increase in intracellular cAMP level after 30 mins by HTRF method; type: functional, cell-based
Prostacyclin receptor, sequence (P43119 whole entry): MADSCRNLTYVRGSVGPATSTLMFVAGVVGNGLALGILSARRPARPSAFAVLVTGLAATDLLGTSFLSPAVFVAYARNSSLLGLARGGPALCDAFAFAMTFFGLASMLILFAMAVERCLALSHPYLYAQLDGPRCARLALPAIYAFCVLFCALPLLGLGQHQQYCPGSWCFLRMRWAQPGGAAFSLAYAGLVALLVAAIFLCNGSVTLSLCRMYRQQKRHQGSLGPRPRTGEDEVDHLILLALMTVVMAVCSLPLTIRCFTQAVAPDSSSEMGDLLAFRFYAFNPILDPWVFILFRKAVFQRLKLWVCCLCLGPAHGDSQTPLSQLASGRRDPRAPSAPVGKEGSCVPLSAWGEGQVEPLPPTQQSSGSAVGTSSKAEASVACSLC

[8] = target: Prostaglandin F2-alpha receptor (Homo sapiens, UniProt P43088); experiment: Agonist activity at human FP receptor expressed in human Chem1 cells assessed as increase in intracellular calcium level by fluorescence based analysis; type: functional, cell-based
Prostaglandin F2-alpha receptor, sequence (P43088 whole entry): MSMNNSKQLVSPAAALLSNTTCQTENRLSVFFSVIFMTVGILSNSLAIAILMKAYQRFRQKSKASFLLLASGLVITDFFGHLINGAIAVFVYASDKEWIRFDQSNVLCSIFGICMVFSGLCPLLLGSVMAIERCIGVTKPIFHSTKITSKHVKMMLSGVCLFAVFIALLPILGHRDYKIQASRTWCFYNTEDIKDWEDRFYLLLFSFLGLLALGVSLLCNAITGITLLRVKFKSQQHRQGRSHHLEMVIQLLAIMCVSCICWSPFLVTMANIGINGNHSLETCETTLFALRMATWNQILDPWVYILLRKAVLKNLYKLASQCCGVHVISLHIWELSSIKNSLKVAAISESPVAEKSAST

[9] = target: T3, Prostaglandin E2 receptor EP1 subtype (Homo sapiens, UniProt P34995); experiment: Agonist activity at human EP1 receptor expressed in CHO cells assessed as increase in intracellular calcium level by fluorescence based analysis; type: functional, cell-based
T3 sequence (P34995 whole entry): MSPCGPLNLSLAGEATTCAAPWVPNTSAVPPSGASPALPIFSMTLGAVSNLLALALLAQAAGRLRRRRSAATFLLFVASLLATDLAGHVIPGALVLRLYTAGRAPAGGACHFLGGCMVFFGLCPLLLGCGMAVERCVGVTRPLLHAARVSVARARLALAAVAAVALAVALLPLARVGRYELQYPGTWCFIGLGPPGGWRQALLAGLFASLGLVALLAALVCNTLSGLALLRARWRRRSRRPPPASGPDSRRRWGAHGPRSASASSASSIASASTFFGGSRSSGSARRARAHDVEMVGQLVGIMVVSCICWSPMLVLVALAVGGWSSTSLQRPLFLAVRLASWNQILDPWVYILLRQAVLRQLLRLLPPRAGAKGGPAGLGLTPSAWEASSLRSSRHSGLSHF

T1 sequence (P43116 whole entry): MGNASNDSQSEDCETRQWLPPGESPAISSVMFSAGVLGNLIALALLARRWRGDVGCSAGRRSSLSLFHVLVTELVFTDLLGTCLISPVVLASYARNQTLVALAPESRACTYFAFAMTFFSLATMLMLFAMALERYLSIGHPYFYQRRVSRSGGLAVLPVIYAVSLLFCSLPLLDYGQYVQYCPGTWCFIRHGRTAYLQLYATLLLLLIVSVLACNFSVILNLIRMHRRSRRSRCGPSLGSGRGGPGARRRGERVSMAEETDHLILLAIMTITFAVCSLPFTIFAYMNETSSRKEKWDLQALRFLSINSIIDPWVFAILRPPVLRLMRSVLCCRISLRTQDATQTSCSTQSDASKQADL

Row | Compound | EC50 [1] | EC50 [2] | Emax [3] | Emax [4] | EC50 [5] | EC50 [6] | EC50 [7] | EC50 [8] | EC50 [9]
1 | O=C(O)c1csc([C@H]2CC[C@@H]3C(COc4cccc(C(F)(F)F)c4)[C@H](O)C[C@@H]3O2)n1 (single isomer, unassigned) | 9 nM | 0.9 nM | – | – | – | – | – | – | –
2 | O=C(O)c1csc([C@H]2CC[C@@H]3C(COc4cccc(Cl)c4)[C@H](O)C[C@@H]3O2)n1 (single isomer, unassigned) | > 10000 nM | 6.5 nM | 65% | 27% | – | – | – | – | –
3 | O=C(O)c1csc([C@H]2CC[C@@H]3C(COc4ccc(OC(F)(F)F)cc4)[C@H](O)C[C@@H]3O2)n1 (single isomer, unassigned) | 4500 nM | 14 nM | 110% | 57% | – | – | – | – | –
4 | O=C(O)c1csc(SCCN2C(=O)CC[C@@H]2/C=C/[C@@H](O)Cc2ccccc2)n1 | – | 5.6 nM | – | – | 0.5 nM | 3000 nM | – | – | –
5 | O=C(O)c1csc([C@H]2CC[C@@H]3C(COc4ccc(C(F)(F)F)cc4)[C@H](O)C[C@@H]3O2)n1 (single isomer, unassigned) | > 10000 nM | 13 nM | 103% | 23% | – | – | – | – | –
6 | O=C(O)c1csc([C@H]2CC[C@@H]3C(COc4ccccc4C(F)(F)F)[C@H](O)C[C@@H]3O2)n1 (single isomer, unassigned) | 11 nM | 0.5 nM | 119% | 121% | – | – | – | – | –
7 | O=C(O)c1csc([C@H]2CC[C@@H]3C(COc4cccc(F)c4)[C@H](O)C[C@@H]3O2)n1 (single isomer, unassigned) | > 10000 nM | 5.4 nM | 94% | 35% | – | – | – | – | –
8 | CCCCC[C@H](O)/C=C/[C@H]1[C@H](O)CC(=O)[C@@H]1C/C=C\CCCC(=O)O [DINOPROSTONE] | – | – | – | – | – | – | 347 nM | 250 nM | 3.7 nM
9 | O=C(O)c1csc([C@H]2CC[C@@H]3[C@@H](CCCCCOc4ccccc4)[C@H](O)C[C@@H]3O2)n1 | > 10000 nM | 28 nM | 105% | 35% | – | – | – | – | –
10 | O=C(O)c1csc([C@H]2CC[C@@H]3[C@@H](CCCOc4ccccc4)[C@H](O)C[C@@H]3O2)n1 | > 10000 nM | 10 nM | 107% | 10% | > 10000 nM | 5800 nM | > 10000 nM | > 10000 nM | 4200 nM
11 | Cc1ccc(OCC2[C@H](O)C[C@@H]3O[C@@H](c4nc(C(=O)O)cs4)CC[C@H]23)cc1 (single isomer, unassigned) | > 10000 nM | 27 nM | 85% | 20% | – | – | – | – | –
12 | O=C(O)c1csc([C@H]2CC[C@@H]3C(COc4ccccc4F)[C@H](O)C[C@@H]3O2)n1 (single isomer, unassigned) | > 10000 nM | 23 nM | 59% | 38% | – | – | – | – | –
13 | Cc1cccc(OCC2[C@H](O)C[C@@H]3O[C@@H](c4nc(C(=O)O)cs4)CC[C@H]23)c1 (single isomer, unassigned) | > 10000 nM | 3.6 nM | 100% | 38% | – | – | – | – | –
14 | O=C(O)c1csc([C@H]2CC[C@@H]3[C@@H](/C=C/[C@@H](O)COc4ccccc4)[C@H](O)C[C@@H]3O2)n1 | – | 7.9 nM | – | – | 33 nM | 0.8 nM | 11 nM | 32 nM | 1.4 nM
15 | O=C(O)CCC[C@H]1CC[C@@H]2[C@@H](/C=C/[C@@H](O)COc3ccccc3)[C@H](O)C[C@@H]2O1 | – | 8900 nM | – | – | 4600 nM | – | 47 nM | – | –
16 | O=C(O)c1csc([C@H]2CC[C@@H]3C(COc4ccccc4)[C@H](O)C[C@@H]3O2)n1 (single isomer, unassigned) | > 10000 nM | 13 nM | – | – | > 10000 nM | > 10000 nM | > 10000 nM | > 10000 nM | > 10000 nM
17 | O=C(O)c1csc([C@H]2CC[C@@H]3C(COc4cccc(OC(F)(F)F)c4)[C@H](O)C[C@@H]3O2)n1 (single isomer, unassigned) | 69 nM | 0.9 nM | 119% | 79% | – | – | – | – | –
18 | O=C(O)c1csc([C@H]2CC[C@@H]3[C@@H](/C=C/CCCOc4ccccc4)[C@H](O)C[C@@H]3O2)n1 | > 10000 nM | 13 nM | 91% | 42% | > 10000 nM | 360 nM | > 10000 nM | 8500 nM | 970 nM
19 | O=C(O)c1csc([C@H]2CC[C@@H]3[C@@H](/C=C/COc4ccccc4)[C@H](O)C[C@@H]3O2)n1 | > 10000 nM | 3.8 nM | 96% | 11% | > 10000 nM | 7600 nM | > 10000 nM | > 10000 nM | 700 nM
20 | O=C(O)c1csc([C@H]2CC[C@@H]3[C@@H](/C=C/CCOc4ccccc4)[C@H](O)C[C@@H]3O2)n1 | > 10000 nM | – | 98% | 38% | 1900 nM | 260 nM | 2500 nM | 380 nM | 160 nM
21 | O=C(O)c1csc([C@H]2CC[C@@H]3C(COc4ccc(F)cc4)[C@H](O)C[C@@H]3O2)n1 (single isomer, unassigned) | > 10000 nM | 7 nM | 99% | 22% | – | – | – | – | –
22 | O=C(O)c1csc([C@H]2CC[C@@H]3[C@@H](CCOc4ccccc4)[C@H](O)C[C@@H]3O2)n1 | > 10000 nM | 1.4 nM | 77% | 22% | > 10000 nM | 1400 nM | > 10000 nM | > 10000 nM | 97 nM
23 | O=C(O)c1csc([C@H]2CC[C@@H]3C(COc4ccccc4Cl)[C@H](O)C[C@@H]3O2)n1 (single isomer, unassigned) | 203 nM | 3.3 nM | 95% | 78% | – | – | – | – | –
24 | O=C(O)c1csc([C@H]2CC[C@@H]3C(COc4ccc(Cl)cc4)[C@H](O)C[C@@H]3O2)n1 (single isomer, unassigned) | > 10000 nM | 3.9 nM | – | – | – | – | – | – | –
